# Article PMC11917140, “Mining the UniProtKB/Swiss‐Prot database for antimicrobial peptides” (Protein Science : A Publication of the Protein Society, 2025)
# Where two headings read alike, the source gives them in different places. No end group written: not given here.
# Legend:
# [1] = tested on: Escherichia coli ATCC 25922; assay type: cell-based
# Description: (§1) To measure the antimicrobial activity of our selected putative AMPs in vitro, broth microdilution assays were conducted to determine the minimum inhibitory and minimum bactericidal concentrations (MICs and MBCs, respectively), as outlined by the Clinical and Laboratory Standards Institute [CLSI] ([2015]). The adaptations for testing cationic AMPs, as described previously (Wiegand et al., [2008]), were incorporated. The selected peptides were tested against laboratory isolates of E. coli 25922 and S. aureus 29213, which were purchased from the American Type Culture Collection (ATCC; Manassas, VA, USA). Bacteria from frozen stocks were streaked onto nonselective Columbia blood agar with 5% sheep blood (Oxoid) and incubated for 18–24 h at 37°C. To ensure the uniform colony health before the assay, 2–4 colonies were streaked onto a new agar plate and incubated for another 18–24 h at 37°C on the next day. To create a standardized bacterial inoculum, isolated colonies were suspended in Mueller‐Hinton Broth (MHB; Sigma‐Aldrich, St. Louis, MO, USA). The suspension was adjusted to an optical density of 0.08–0.1 at 600 nm, which corresponds to a 0.5 McFarland standard of approximately 1–2 × 10^8 colony‐forming units (CFU)/mL. The inoculum was then diluted 1:250, resulting in a final concentration of 5 ± 3 × 10^5 CFU/mL. The target bacterial density was confirmed by measuring the total viability counts from the final tested inoculum.
# (§2) The selected putative AMPs were purchased from and synthesized by GenScript (Piscataway, NJ, USA) in lyophilized format. The peptides were stored at −20°C and were suspended in sterile ultrapure water prior to testing. A two‐fold serial dilution of 1280 to 2.5 μg/mL was prepared in sterile 96‐well polypropylene microtiter plates (Greiner Bio‐One #650261, Kremsmünster, Austria). Then, 100 μL of the standardized bacterial inoculum was added to each well, resulting in a final AMP testing range of 128 to 0.25 μg/mL. The MIC values were determined as the lowest peptide concentration in which no visible bacterial growth was observed after a 20–24 h incubation at 37°C. To determine the MBC values, well contents of the MIC and the two adjacent wells containing the two‐ and four‐fold higher peptide concentrations were plated onto nonselective nutrient agar. The concentration in which 99.9% of the inoculum was killed after an incubation for 24 h at 37°C was reported as the MBC.
# (§3) In our tests, we used Ranatuerin‐4—a known AMP from the American bullfrog (Goraya et al., [1998]), and an in‐house peptide [TKPKG]3 (OT15) as the positive and negative control peptides, respectively. We note that OT15 was truncated and derived from a negative control peptide [TKPKG]4 (OT20), not antimicrobial but sharing similar characteristics to AMPs, used in previous studies (Horváti et al., [2017]).
# [2] = tested on: Staphylococcus aureus ATCC 29213; assay type: cell-based
# Description: as §1, §2, §3
# [3] = tested on: porcine red blood cells (RBCs); assay: Hemolysis assay; assay type: cell-based, pig; conditions: 1% porcine RBCs in RPMI, 37°C 30–45 min, absorbance 415 nm, tested 1–128 μg/mL, 2% Triton-X100 = 100%; three independent experiments in duplicate, one maximum and one minimum data point dropped
# Description: Hemolysis experiments were performed to evaluate the toxicity of the selected peptides to RBCs. Whole blood from healthy donor pigs was purchased from Lampire Biological Laboratories (Pipersville, PA, USA), and RBCs were washed and isolated by centrifugation using Roswell Park Memorial Institute (RPMI) medium (Life Technologies, Grand Island, NY, USA). Peptides were suspended and serially diluted from 1280 to 10 μg/mL using RPMI medium in a 96‐well polypropylene microtiter plate, and then combined with 100 μL of the 1% RBC solution, providing a final AMP testing range of 128 to 1 μg/mL. Plates were centrifuged after an incubation at 37°C for 30–45 min, and 1/2 volume from each supernatant was transferred to a new 96‐well plate. The absorbance of the wells was measured at 415 nm utilizing the Cytation 5 Cell Imaging Multimode Reader (BioTek, CA, USA), and the peptide concentration that lysed 50% of the RBCs (HC50) was used to determine the hemolytic activity. Absorbance readings from wells containing RBCs treated with 11 μL of a 2% Triton‐X100 solution or RPMI medium (AMP solvent‐only) were used to define 100% and 0% hemolysis, respectively. We note that all centrifugation steps were performed at 500× g for 5 min in an Allegra‐6R centrifuge (Beckman Coulter, CA, USA).
# [4] = broth microdilution (CLSI, adapted for cationic AMPs), MHB, 5 ± 3 × 10^5 CFU/mL, 20–24 h at 37°C, tested 0.25–128 μg/mL, range from three independent experiments in duplicate, one maximum and one minimum data point dropped
# [5] = concentration killing 99.9% of inoculum, plated on nutrient agar, 24 h at 37°C, range from three independent experiments in duplicate, one maximum and one minimum data point dropped
Substance,"MIC, E. coli ATCC 25922 [1, 4]","MBC, E. coli ATCC 25922 [1, 5]","MIC, S. aureus ATCC 29213 [2, 4]","MBC, S. aureus ATCC 29213 [2, 5]","MIC, E. coli ATCC 25922 ([1]; ATCC 25922)","MBC, E. coli ATCC 25922 ([1]; ATCC 25922, 24 h)","MIC, S. aureus ATCC 29213 ([2]; ATCC 29213)","MBC, S. aureus ATCC 29213 ([2]; ATCC 29213, 24 h)","HC50 (concentration that lyses 50% of RBCs), porcine RBCs [3]"
"FLEKPPGPLGARPLGGK [MuMu4, putative AMP mined from UniProt Q9Z0L3, Mus musculus]",> 128 µg/mL,> 128 µg/mL,> 128 µg/mL,> 128 µg/mL,,,,,
FMRFGKRFMRFGRFGKSAEVENNIQIAAKQS [LySt2],,,,,> 128 µg/mL,> 128 µg/mL,> 128 µg/mL,> 128 µg/mL,
FWNLNKKKKFFYKTVKNSIGQVILRDMSNN [DiDi2],,,,,16 µg/mL,16 µg/mL,> 128 µg/mL,> 128 µg/mL,
GLIKRIIRQKR [GaGa2],,,,,128 µg/mL,,> 128 µg/mL,,
GLQKLINKIKSQMSRFSTKTNKICGP [HoSa1],,,,,16 µg/mL,16 to 32 µg/mL,128 µg/mL,,
GRGRPKGRGRGRPRGRPRGSKR [GoGo1],64 µg/mL,,> 128 µg/mL,> 128 µg/mL,,,,,
"GVLKKVIRHKR [HoSa6, putative AMP mined from UniProt P24821, Q29116; Homo sapiens, Sus scrofa]",> 128 µg/mL,> 128 µg/mL,> 128 µg/mL,> 128 µg/mL,,,,,
ILDKVRLWLARIRLNLLKR [PlVi1],,,,,,,,,> 128 µg/mL
"QFFLPMILRLYVSRLFISKL [CaGl2, putative AMP mined from UniProt P05040, Candida glabrata]",> 128 µg/mL,> 128 µg/mL,> 128 µg/mL,> 128 µg/mL,,,,,
"QVWKRR [HoSa8, putative AMP mined from UniProt Q9BXP8, Homo sapiens]",> 128 µg/mL,> 128 µg/mL,> 128 µg/mL,> 128 µg/mL,,,,,
"RFGRFLRKIRRFRPKVTITIQGSARFG [Chicken CATH-2, reference compound]",,,,,8 to 16 µg/mL,8 to 16 µg/mL,32 µg/mL,32 µg/mL,
"RIRGHTIKG [DrMe6, putative AMP mined from UniProt O46201, Drosophila melanogaster]",> 128 µg/mL,> 128 µg/mL,> 128 µg/mL,> 128 µg/mL,,,,,
RSIIRNGIRTLTWRKETKRKKK [ArTh11],64 to 128 µg/mL,,> 128 µg/mL,> 128 µg/mL,64 to 128 µg/mL,,,,
"RVKRFWPLVPVAINTVAAGINLYKAIRRK [Chicken CATH-3, reference compound]",,,,,2 to 4 µg/mL,2 to 4 µg/mL,2 µg/mL,2 to 4 µg/mL,
SYWWWGFHKNVIDRREAFYADLAEKKKAEN [CaGl1],,,,,> 128 µg/mL,> 128 µg/mL,> 128 µg/mL,> 128 µg/mL,
"VMRSAGSRSSKR [OrSa6, putative AMP mined from UniProt Q5VRI5, Oryza sativa subsp. japonica]",> 128 µg/mL,> 128 µg/mL,> 128 µg/mL,> 128 µg/mL,,,,,
VWEFFEAGAGLRASNASKKIYGVAKRFRR [DiVi1],,,,,> 128 µg/mL,> 128 µg/mL,> 128 µg/mL,> 128 µg/mL,
WIIQCWWRQVLEKLLAKRRR [HoSa4],32 µg/mL,32 µg/mL,64 to 128 µg/mL,,,,64 to 128 µg/mL,,
WLLVLQRGHRLASIKHVCQLSERKR [DaRe1],,,,,32 to 64 µg/mL,32 to 64 µg/mL,> 128 µg/mL,> 128 µg/mL,
"YVSPVAIVKGLNIPL [Ovipin, reference compound]",,,,,> 128 µg/mL,,> 128 µg/mL,,
